Experimental data published in ChEMBL document CHEMBL4507318, “Data for DCP probe BAY-985” (2021).

Assays:
[1] = molecular target: Non-receptor tyrosine-protein kinase TYK2 (Homo sapiens) (UniProt P29597)
[2] = molecular target: Mast/stem cell growth factor receptor Kit (Homo sapiens) (UniProt P10721)
[3] = molecular target: Cytoplasmic tyrosine-protein kinase BMX (Homo sapiens) (UniProt P51813)
[4] = molecular target: Receptor tyrosine-protein kinase erbB-4 (Homo sapiens) (UniProt Q15303)
[5] = molecular target: NUAK family SNF1-like kinase 2 (Homo sapiens) (UniProt Q9H093)
[6] = molecular target: 5-hydroxytryptamine receptor 1A (Homo sapiens) (UniProt P08908); details: Compound concentration 10.0 uM
[7] = molecular target: Mitogen-activated protein kinase kinase kinase kinase 4 (Homo sapiens) (UniProt O95819)
[8] = molecular target: Protein kinase C epsilon type (Homo sapiens) (UniProt Q02156)
[9] = molecular target: Macrophage colony-stimulating factor 1 receptor (Homo sapiens) (UniProt P07333)
[10] = molecular target: Dual specificity protein kinase CLK3 (Homo sapiens) (UniProt P49761)
Chain of Dual specificity protein kinase CLK3 (Homo sapiens) (P49761 whole entry, looked up): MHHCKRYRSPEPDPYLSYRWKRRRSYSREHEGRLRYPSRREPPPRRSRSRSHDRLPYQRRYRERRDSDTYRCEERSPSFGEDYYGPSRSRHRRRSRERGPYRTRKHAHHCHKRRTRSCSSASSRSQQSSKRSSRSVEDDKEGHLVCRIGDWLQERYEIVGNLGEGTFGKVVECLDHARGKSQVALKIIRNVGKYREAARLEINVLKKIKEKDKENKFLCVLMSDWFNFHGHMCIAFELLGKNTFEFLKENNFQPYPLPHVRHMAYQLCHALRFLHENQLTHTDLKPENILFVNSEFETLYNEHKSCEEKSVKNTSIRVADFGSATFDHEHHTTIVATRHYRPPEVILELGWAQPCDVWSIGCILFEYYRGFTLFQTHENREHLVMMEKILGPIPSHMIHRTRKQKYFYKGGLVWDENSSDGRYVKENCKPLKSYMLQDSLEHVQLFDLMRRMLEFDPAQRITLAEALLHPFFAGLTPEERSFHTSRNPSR

[11] = molecular target: Mu-type opioid receptor (Homo sapiens) (UniProt P35372); details: Compound concentration 10.0 uM
Chain of Mu-type opioid receptor (Homo sapiens) (P35372 whole entry): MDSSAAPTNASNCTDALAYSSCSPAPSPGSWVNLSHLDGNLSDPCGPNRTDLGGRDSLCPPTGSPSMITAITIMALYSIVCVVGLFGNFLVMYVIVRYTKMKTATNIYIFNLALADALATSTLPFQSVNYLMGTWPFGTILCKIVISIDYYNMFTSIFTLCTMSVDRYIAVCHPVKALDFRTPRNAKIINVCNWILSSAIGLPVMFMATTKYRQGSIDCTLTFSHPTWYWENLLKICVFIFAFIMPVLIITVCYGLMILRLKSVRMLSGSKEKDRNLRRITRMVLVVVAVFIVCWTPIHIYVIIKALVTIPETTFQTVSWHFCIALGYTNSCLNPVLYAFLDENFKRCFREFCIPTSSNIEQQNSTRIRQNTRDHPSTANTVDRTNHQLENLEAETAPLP

[12] = molecular target: Histamine H4 receptor (Homo sapiens) (UniProt Q9H3N8); details: Compound concentration 10.0 uM
[13] = molecular target: Mitogen-activated protein kinase 4 (Homo sapiens) (UniProt P31152)
[14] = molecular target: Tyrosine-protein kinase Fyn (Homo sapiens) (UniProt P06241)
[15] = molecular target: Proto-oncogene tyrosine-protein kinase Src (Homo sapiens) (UniProt P12931)
Chain of Proto-oncogene tyrosine-protein kinase Src (Homo sapiens) (P12931 2-536 limits assumed): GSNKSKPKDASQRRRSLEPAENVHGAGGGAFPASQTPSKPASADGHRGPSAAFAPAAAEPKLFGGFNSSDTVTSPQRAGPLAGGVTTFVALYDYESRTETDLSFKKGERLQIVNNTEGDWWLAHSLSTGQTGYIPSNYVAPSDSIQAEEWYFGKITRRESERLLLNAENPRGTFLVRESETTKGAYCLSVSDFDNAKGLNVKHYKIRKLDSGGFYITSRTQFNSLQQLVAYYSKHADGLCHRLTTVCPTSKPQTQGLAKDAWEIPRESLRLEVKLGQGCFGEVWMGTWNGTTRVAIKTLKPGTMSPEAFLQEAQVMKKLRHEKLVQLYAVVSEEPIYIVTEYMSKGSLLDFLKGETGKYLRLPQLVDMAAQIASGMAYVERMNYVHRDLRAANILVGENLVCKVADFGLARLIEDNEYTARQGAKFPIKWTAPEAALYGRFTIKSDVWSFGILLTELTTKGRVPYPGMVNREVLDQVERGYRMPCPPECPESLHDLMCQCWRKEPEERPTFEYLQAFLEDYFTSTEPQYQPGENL

[16] = molecular target: Tyrosine-protein kinase receptor UFO (Homo sapiens) (UniProt P30530)
[17] = system: eIF-2-alpha kinase GCN2 (Homo sapiens), Q9P2K8 [S808G]
[18] = molecular target: STE20-like serine/threonine-protein kinase (Homo sapiens) (UniProt Q9H2G2)
[19] = molecular target: cAMP-dependent protein kinase catalytic subunit beta (Homo sapiens) (UniProt P22694)
[20] = molecular target: Phosphatidylinositol 3-kinase catalytic subunit type 3 (Homo sapiens) (UniProt Q8NEB9)
[21] = molecular target: Alpha-1B adrenergic receptor (Homo sapiens) (UniProt P35368); details: Compound concentration 10.0 uM
[22] = molecular target: Homeodomain-interacting protein kinase 2 (Homo sapiens) (UniProt Q9H2X6)
[23] = molecular target: Mitogen-activated protein kinase 3 (Homo sapiens) (UniProt P27361)
[24] = molecular target: cGMP-dependent protein kinase 1 (Homo sapiens) (UniProt Q13976)
[25] = molecular target: Muscarinic acetylcholine receptor M4 (Homo sapiens) (UniProt P08173); details: Compound concentration 10.0 uM
[26] = system: Mast/stem cell growth factor receptor Kit (Homo sapiens), P10721 [V559D]
[27] = molecular target: Cyclin-dependent kinase 4 (Homo sapiens) (UniProt P11802)
[28] = molecular target: Phosphatidylinositol 4,5-bisphosphate 3-kinase catalytic subunit gamma isoform (Homo sapiens) (UniProt P48736)
[29] = molecular target: Casein kinase I isoform epsilon (Homo sapiens) (UniProt P49674)
[30] = molecular target: Atypical kinase COQ8A, mitochondrial (Homo sapiens) (UniProt Q8NI60)
Chain of Atypical kinase COQ8A, mitochondrial (Homo sapiens) (Q8NI60 163-647 limits assumed): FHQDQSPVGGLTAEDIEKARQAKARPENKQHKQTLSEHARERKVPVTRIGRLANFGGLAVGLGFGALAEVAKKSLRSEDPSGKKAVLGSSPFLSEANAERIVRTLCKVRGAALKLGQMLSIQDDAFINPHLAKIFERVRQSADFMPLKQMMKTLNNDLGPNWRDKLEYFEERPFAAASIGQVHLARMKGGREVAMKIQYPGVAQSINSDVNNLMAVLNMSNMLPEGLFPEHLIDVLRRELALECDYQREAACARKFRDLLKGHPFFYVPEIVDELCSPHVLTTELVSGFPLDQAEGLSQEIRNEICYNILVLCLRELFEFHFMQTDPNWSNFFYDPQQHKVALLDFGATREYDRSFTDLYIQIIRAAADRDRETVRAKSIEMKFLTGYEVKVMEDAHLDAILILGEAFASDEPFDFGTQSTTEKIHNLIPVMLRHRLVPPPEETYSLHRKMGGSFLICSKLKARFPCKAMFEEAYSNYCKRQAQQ

[31] = molecular target: Casein kinase II subunit alpha' (Homo sapiens) (UniProt P19784)
[32] = molecular target: Serine/threonine-protein kinase BRSK2 (Homo sapiens) (UniProt Q8IWQ3)
[33] = molecular target: Mitotic checkpoint serine/threonine-protein kinase BUB1 (Homo sapiens) (UniProt O43683)
[34] = molecular target: TGF-beta receptor type-2 (Homo sapiens) (UniProt P37173)
[35] = molecular target: Dual specificity tyrosine-phosphorylation-regulated kinase 2 (Homo sapiens) (UniProt Q92630)
[36] = molecular target: MAP kinase-interacting serine/threonine-protein kinase 1 (Homo sapiens) (UniProt Q9BUB5)
[37] = molecular target: Ephrin type-A receptor 2 (Homo sapiens) (UniProt P29317)
Chain of Ephrin type-A receptor 2 (Homo sapiens) (P29317 whole entry): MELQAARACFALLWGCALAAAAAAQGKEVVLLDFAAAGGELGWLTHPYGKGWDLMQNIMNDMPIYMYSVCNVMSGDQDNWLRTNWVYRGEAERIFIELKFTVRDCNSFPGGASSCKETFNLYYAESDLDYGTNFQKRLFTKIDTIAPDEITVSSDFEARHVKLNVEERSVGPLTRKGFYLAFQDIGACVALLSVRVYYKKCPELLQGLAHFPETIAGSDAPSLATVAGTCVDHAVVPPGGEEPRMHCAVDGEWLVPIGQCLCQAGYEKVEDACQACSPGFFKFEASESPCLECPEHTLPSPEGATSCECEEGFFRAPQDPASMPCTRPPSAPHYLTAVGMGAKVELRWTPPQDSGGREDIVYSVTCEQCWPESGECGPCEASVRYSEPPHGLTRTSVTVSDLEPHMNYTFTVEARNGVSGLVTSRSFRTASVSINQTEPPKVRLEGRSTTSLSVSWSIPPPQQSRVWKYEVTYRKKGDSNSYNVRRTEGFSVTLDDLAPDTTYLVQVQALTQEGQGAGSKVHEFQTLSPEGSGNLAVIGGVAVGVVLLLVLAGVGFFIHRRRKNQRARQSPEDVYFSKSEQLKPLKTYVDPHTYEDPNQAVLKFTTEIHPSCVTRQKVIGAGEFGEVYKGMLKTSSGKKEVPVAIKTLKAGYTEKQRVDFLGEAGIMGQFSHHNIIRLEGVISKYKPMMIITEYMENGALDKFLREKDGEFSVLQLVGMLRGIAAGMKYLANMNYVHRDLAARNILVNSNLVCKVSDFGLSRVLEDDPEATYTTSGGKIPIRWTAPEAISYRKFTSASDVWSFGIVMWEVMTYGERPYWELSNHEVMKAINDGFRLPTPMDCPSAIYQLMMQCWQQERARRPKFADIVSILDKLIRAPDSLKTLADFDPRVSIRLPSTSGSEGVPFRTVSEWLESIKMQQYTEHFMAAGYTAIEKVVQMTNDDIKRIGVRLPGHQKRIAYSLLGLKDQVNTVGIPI

[38] = system: Mast/stem cell growth factor receptor Kit (Homo sapiens), P10721 [L576P]
[39] = molecular target: Serine/threonine-protein kinase/endoribonuclease IRE1 (Homo sapiens) (UniProt O75460)
[40] = molecular target: Serine/threonine-protein kinase SIK1 (Homo sapiens) (UniProt P57059)
Chain of Serine/threonine-protein kinase SIK1 (Homo sapiens) (P57059 whole entry): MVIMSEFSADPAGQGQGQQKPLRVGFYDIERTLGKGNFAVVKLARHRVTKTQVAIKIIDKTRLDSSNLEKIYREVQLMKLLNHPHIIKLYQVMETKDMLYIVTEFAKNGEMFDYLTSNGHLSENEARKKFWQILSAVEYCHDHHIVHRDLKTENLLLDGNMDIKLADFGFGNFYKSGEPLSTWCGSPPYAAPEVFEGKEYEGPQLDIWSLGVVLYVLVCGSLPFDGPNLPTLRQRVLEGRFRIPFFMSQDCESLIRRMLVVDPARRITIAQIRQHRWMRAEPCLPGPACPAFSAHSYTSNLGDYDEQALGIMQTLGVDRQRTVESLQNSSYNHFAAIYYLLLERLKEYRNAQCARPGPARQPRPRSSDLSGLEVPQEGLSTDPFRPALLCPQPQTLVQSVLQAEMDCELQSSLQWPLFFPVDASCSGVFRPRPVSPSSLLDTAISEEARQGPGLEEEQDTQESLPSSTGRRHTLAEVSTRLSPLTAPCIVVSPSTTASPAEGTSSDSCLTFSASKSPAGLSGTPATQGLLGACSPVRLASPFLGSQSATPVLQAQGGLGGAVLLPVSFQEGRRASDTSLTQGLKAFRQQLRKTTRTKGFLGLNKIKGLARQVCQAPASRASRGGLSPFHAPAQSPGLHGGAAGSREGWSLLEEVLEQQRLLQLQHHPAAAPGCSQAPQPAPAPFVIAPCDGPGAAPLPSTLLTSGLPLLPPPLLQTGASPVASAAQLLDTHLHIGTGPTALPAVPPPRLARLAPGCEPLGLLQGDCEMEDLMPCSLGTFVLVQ

[41] = system: Tyrosine-protein kinase ABL1 (Homo sapiens), P00519 [H396P]
[42] = molecular target: Serine/threonine-protein kinase LATS2 (Homo sapiens) (UniProt Q9NRM7)
[43] = molecular target: Tyrosine-protein kinase JAK3 (Homo sapiens) (UniProt P52333)
[44] = molecular target: Cyclin-dependent kinase 15 (Homo sapiens) (UniProt Q96Q40)
[45] = molecular target: Serine/threonine-protein kinase Nek4 (Homo sapiens) (UniProt P51957)
[46] = Compound concentration 1000.0 nM
[47] = Compound concentration 100.0 nM

Chain of Non-receptor tyrosine-protein kinase TYK2 (Homo sapiens) (P29597 whole entry): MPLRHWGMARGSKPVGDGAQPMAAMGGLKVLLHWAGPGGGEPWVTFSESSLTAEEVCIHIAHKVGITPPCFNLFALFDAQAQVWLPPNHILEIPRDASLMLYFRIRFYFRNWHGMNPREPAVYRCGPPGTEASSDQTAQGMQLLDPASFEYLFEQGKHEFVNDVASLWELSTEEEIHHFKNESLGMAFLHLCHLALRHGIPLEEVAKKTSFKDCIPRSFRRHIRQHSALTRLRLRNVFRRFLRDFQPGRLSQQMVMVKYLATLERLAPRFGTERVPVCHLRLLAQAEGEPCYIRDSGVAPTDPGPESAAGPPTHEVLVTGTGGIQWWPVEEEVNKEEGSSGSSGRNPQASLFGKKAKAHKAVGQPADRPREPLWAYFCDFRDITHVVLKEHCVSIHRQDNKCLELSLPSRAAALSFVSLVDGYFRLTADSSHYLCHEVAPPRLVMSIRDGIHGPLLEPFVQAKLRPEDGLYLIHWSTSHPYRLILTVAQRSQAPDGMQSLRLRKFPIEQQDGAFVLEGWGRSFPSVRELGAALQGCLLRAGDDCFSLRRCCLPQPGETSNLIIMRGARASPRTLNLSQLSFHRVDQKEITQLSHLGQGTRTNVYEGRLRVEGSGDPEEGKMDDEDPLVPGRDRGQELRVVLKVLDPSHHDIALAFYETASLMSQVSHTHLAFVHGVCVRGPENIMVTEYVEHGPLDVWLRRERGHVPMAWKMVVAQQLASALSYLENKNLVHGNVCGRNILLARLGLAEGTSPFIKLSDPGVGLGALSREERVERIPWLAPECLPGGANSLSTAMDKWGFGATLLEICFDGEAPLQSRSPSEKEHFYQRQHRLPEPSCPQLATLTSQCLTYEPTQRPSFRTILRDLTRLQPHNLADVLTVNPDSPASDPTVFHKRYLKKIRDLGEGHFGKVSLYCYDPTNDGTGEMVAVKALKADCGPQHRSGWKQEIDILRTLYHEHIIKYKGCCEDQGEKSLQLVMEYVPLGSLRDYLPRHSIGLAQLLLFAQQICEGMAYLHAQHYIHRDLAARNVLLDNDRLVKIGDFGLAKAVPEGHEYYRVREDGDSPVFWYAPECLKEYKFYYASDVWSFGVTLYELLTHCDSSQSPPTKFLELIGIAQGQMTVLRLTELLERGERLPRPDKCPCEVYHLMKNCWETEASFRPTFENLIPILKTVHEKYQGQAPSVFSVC

Q: Which residual activity [1, 46] does the source give for `CN(C)c1ncnc(-c2ccc3nc(Nc4cc(CN5CCN(C(=O)CC(F)(F)F)CC5)ccn4)[nH]c3c2)c1Cl` [BAY-440] here?
A: 77%

Q: What about the residual activity [2, 46] of the same molecule?
A: 96%

Q: What about the residual activity [3, 46] of the same molecule?
A: 100%

Q: And the residual activity [4, 46]?
A: 99%

Q: What about the residual activity [5, 46] of the same molecule?
A: 66%

Q: And the inhibition [6]?
A: 13.9%

Q: What about the residual activity [7, 46] of the same molecule?
A: 100%

Q: What about the residual activity [8, 46] of the same molecule?
A: 100%

Q: What about the residual activity [9, 46] of the same molecule?
A: 50%

Q: And the residual activity [10, 46]?
A: 100%

Q: What about the inhibition [11] of the same molecule?
A: 14.1%

Q: And the inhibition [12]?
A: -2.29%

Q: And the residual activity [13, 46]?
A: 100%

Q: What about the residual activity [14, 46] of the same molecule?
A: 68%

Q: What about the residual activity [15, 46] of the same molecule?
A: 100%

Q: What about the residual activity [16, 46] of the same molecule?
A: 57%

Q: And the residual activity [17, 46]?
A: 100%

Q: What about the residual activity [18, 46] of the same molecule?
A: 100%

Q: And the residual activity [19, 46]?
A: 76%

Q: And the residual activity [20, 46]?
A: 100%

Q: And the inhibition [21]?
A: 4.51%

Q: What about the residual activity [22, 46] of the same molecule?
A: 86%

Q: And the residual activity [23, 46]?
A: 100%

Q: What about the residual activity [24, 46] of the same molecule?
A: 94%

Q: What about the inhibition [25] of the same molecule?
A: 4.83%

Q: And the residual activity [26, 46]?
A: 75%

Q: And the residual activity [27, 46]?
A: 83%

Q: What about the residual activity [28, 46] of the same molecule?
A: 100%

Q: And the residual activity [29, 46]?
A: 100%

Q: What about the residual activity [30, 46] of the same molecule?
A: 100%

Q: What about the residual activity [31, 46] of the same molecule?
A: 78%

Q: And the residual activity [32, 46]?
A: 100%

Q: And the residual activity [33, 46]?
A: 94%

Q: And the residual activity [34, 46]?
A: 85%

Q: And the residual activity [35, 46]?
A: 81%

Q: What about the residual activity [36, 46] of the same molecule?
A: 62%

Q: And the residual activity [37, 46]?
A: 100%

Q: What about the residual activity [38, 46] of the same molecule?
A: 87%

Q: What about the residual activity [39, 46] of the same molecule?
A: 62%

Q: And the residual activity [40, 46]?
A: 94%

Q: What about the residual activity [41, 46] of the same molecule?
A: 44%

Q: What about the residual activity [42, 46] of the same molecule?
A: 53%

Q: And the residual activity [43, 46]?
A: 71%

Q: What about the residual activity [44, 46] of the same molecule?
A: 100%

Q: What about the residual activity [45, 46] of the same molecule?
A: 84%

Q: How did the residual activity [1, 47] turn out when `C[C@H](c1ccnc(Nc2nc3ccc(-c4cc(N(C)C)ncn4)cc3[nH]2)c1)N1CCN(C(=O)CC(F)(F)F)CC1` [BAY-985] was run?
A: 100%

Q: And the residual activity [2, 47]?
A: 100%

Q: What about the residual activity [3, 47] of the same molecule?
A: 100%

Q: What about the residual activity [4, 47] of the same molecule?
A: 96%

Q: What about the residual activity [5, 47] of the same molecule?
A: 95%

Q: What about the inhibition [6] of the same molecule?
A: 6.47%

Q: And the residual activity [7, 47]?
A: 91%

Q: What about the residual activity [8, 47] of the same molecule?
A: 96%

Q: And the residual activity [9, 47]?
A: 90%

Q: And the residual activity [10, 47]?
A: 100%

Q: And the inhibition [11]?
A: 26%

Q: And the inhibition [12]?
A: -0.75%

Q: What about the residual activity [13, 47] of the same molecule?
A: 100%

Q: What about the residual activity [14, 47] of the same molecule?
A: 79%

Q: What about the residual activity [15, 47] of the same molecule?
A: 100%

Q: What about the residual activity [16, 47] of the same molecule?
A: 100%

Q: And the residual activity [17, 47]?
A: 58%

Q: And the residual activity [18, 47]?
A: 99%

Q: What about the residual activity [19, 47] of the same molecule?
A: 100%

Q: And the residual activity [20, 47]?
A: 100%

Q: And the inhibition [21]?
A: 2.95%

Q: What about the residual activity [22, 47] of the same molecule?
A: 100%

Q: And the residual activity [23, 47]?
A: 89%

Q: And the residual activity [24, 47]?
A: 100%

Q: And the inhibition [25]?
A: 24.7%

Q: What about the residual activity [26, 47] of the same molecule?
A: 99%

Q: And the residual activity [27, 47]?
A: 100%

Q: What about the residual activity [28, 47] of the same molecule?
A: 100%

Q: And the residual activity [29, 47]?
A: 100%

Q: And the residual activity [30, 47]?
A: 100%

Q: And the residual activity [31, 47]?
A: 100%

Q: And the residual activity [32, 47]?
A: 100%

Q: What about the residual activity [33, 47] of the same molecule?
A: 95%

Q: And the residual activity [34, 47]?
A: 98%

Q: And the residual activity [35, 47]?
A: 87%

Q: And the residual activity [36, 47]?
A: 92%

Q: And the residual activity [37, 47]?
A: 100%

Q: And the residual activity [38, 47]?
A: 91%

Q: What about the residual activity [39, 47] of the same molecule?
A: 86%

Q: And the residual activity [40, 47]?
A: 96%

Q: And the residual activity [41, 47]?
A: 87%

Q: And the residual activity [42, 47]?
A: 80%

Q: What about the residual activity [43, 47] of the same molecule?
A: 83%

Q: And the residual activity [44, 47]?
A: 100%

Q: And the residual activity [45, 47]?
A: 100%
